Measurements: ChEMBL document CHEMBL5528002, “Identification of selective 5-LOX and FLAP inhibitors as novel anti-inflammatory agents by ligand-based virtual screening” (Eur J Med Chem, 2024)

Assays:
[1] = biological target: T1, Polyunsaturated fatty acid 5-lipoxygenase (Homo sapiens) (UniProt P09917); experiment: Inhibition of 5-LOX in human Neutrophil at 10 uM using arachidonic acid as substrate preincubated with compound for 15 mins followed by substrate and A23187 addition measured after 10 mins by RP-HPLC analysis relative to control; format: cell-based; settings: time 25.0 min
T1 sequence (whole entry): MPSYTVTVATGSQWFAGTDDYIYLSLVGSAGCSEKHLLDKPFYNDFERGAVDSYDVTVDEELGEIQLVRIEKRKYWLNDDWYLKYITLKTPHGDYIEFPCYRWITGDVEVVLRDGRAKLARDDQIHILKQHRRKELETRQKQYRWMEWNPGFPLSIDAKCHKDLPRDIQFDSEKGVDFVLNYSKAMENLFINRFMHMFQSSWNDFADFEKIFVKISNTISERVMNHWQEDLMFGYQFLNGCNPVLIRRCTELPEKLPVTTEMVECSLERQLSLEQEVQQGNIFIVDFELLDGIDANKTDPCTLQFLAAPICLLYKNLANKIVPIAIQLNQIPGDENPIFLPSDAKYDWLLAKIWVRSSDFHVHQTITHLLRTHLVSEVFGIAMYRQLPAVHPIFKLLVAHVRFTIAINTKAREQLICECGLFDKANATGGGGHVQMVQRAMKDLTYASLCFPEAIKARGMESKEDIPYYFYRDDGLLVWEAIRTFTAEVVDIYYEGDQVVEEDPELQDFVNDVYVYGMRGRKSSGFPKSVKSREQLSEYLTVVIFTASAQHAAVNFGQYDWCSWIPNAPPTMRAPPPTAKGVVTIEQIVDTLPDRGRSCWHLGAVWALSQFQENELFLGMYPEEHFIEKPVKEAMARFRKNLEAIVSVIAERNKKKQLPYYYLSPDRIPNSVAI

[2] = tested on: Macrophage cell line; experiment: Effect on lipid mediator formation in human M2-like phenotype MDM cells by measuring 15-HETE formation at 10 uM pre-incubated for 15 mins followed by SACM stimulation and measured after 90 mins by UPLC-MS/MS analysis relative to control; format: functional; settings: time 105 min, 1.75 h
[3] = tested on: Macrophage cell line; experiment: Effect on lipid mediator formation in human M1-like phenotype MDM cells by measuring 17-HDHA formation at 10 uM pre-incubated for 15 mins followed by SACM stimulation and measured after 90 mins by UPLC-MS/MS analysis relative to control; format: functional; settings: time 105 min, 1.75 h
[4] = tested on: Macrophage cell line; experiment: Effect on lipid mediator formation in human M2-like phenotype MDM cells by measuring PGD2 formation at 10 uM pre-incubated for 15 mins followed by SACM stimulation and measured after 90 mins by UPLC-MS/MS analysis relative to control; format: functional; settings: time 105 min, 1.75 h
[5] = tested on: Macrophage cell line; experiment: Effect on lipid mediator formation in human M2-like phenotype MDM cells by measuring RvD1 formation at 10 uM pre-incubated for 15 mins followed by SACM stimulation and measured after 90 mins by UPLC-MS/MS analysis (reference value: 5 +/- 2 pg/ml); format: functional; settings: time 105 min, 1.75 h
[6] = tested on: Macrophage cell line; experiment: Effect on lipid mediator formation in human M2-like phenotype MDM cells by measuring 12-HEPE formation at 10 uM pre-incubated for 15 mins followed by SACM stimulation and measured after 90 mins by UPLC-MS/MS analysis (reference value: 361 +/- 75 pg/ml); format: functional; settings: time 105 min, 1.75 h
[7] = tested on: Macrophage cell line; experiment: Effect on lipid mediator formation in human M2-like phenotype MDM cells by measuring t-LTB4 formation at 10 uM pre-incubated for 15 mins followed by SACM stimulation and measured after 90 mins by UPLC-MS/MS analysis (reference value: 426 +/- 49 pg/ml); format: functional; settings: time 105 min, 1.75 h
[8] = tested on: Macrophage cell line; experiment: Effect on lipid mediator formation in human M2-like phenotype MDM cells by measuring 5-HETE formation at 10 uM pre-incubated for 15 mins followed by SACM stimulation and measured after 90 mins by UPLC-MS/MS analysis relative to control; format: functional; settings: time 105 min, 1.75 h
[9] = tested on: Macrophage cell line; experiment: Effect on lipid mediator formation in human M2-like phenotype MDM cells by measuring MaR1 formation at 10 uM pre-incubated for 15 mins followed by SACM stimulation and measured after 90 mins by UPLC-MS/MS analysis (reference value: 76 +/- 18 pg/ml); format: functional; settings: time 105 min, 1.75 h
[10] = tested on: Macrophage cell line; experiment: Effect on lipid mediator formation in human M2-like phenotype MDM cells by measuring 4-HDHA formation at 10 uM pre-incubated for 15 mins followed by SACM stimulation and measured after 90 mins by UPLC-MS/MS analysis relative to control; format: functional; settings: time 105 min, 1.75 h
[11] = tested on: Macrophage cell line; experiment: Effect on lipid mediator formation in human M2-like phenotype MDM cells by measuring DHA formation at 10 uM pre-incubated for 15 mins followed by SACM stimulation and measured after 90 mins by UPLC-MS/MS analysis (reference value: 50400 +/- 3051 pg/ml); format: functional; settings: time 105 min, 1.75 h
[12] = tested on: Macrophage cell line; experiment: Effect on lipid mediator formation in human M2-like phenotype MDM cells by measuring PGE2 formation at 10 uM pre-incubated for 15 mins followed by SACM stimulation and measured after 90 mins by UPLC-MS/MS analysis (reference value: 159 +/- 24 pg/ml); format: functional; settings: time 105 min, 1.75 h
[13] = tested on: Macrophage cell line; experiment: Effect on lipid mediator formation in human M2-like phenotype MDM cells by measuring PGD2 formation at 10 uM pre-incubated for 15 mins followed by SACM stimulation and measured after 90 mins by UPLC-MS/MS analysis (reference value: 48 +/- 13 pg/ml); format: functional; settings: time 105 min, 1.75 h
[14] = tested on: Macrophage cell line; experiment: Effect on lipid mediator formation in human M1-like phenotype MDM cells by measuring 15-HEPE formation at 10 uM pre-incubated for 15 mins followed by SACM stimulation and measured after 90 mins by UPLC-MS/MS analysis relative to control; format: functional; settings: time 105 min, 1.75 h
[15] = tested on: Macrophage cell line; experiment: Effect on lipid mediator formation in human M2-like phenotype MDM cells by measuring LTB4 formation at 10 uM pre-incubated for 15 mins followed by SACM stimulation and measured after 90 mins by UPLC-MS/MS analysis (reference value: 509 +/- 30 pg/ml); format: functional; settings: time 105 min, 1.75 h
[16] = tested on: Macrophage cell line; experiment: Effect on lipid mediator formation in human M1-like phenotype MDM cells by measuring t-LTB4 formation at 10 uM pre-incubated for 15 mins followed by SACM stimulation and measured after 90 mins by UPLC-MS/MS analysis (reference value: 338 +/- 102 pg/ml); format: functional; settings: time 105 min, 1.75 h
[17] = tested on: Macrophage cell line; experiment: Effect on lipid mediator formation in human M1-like phenotype MDM cells by measuring EPA formation at 10 uM pre-incubated for 15 mins followed by SACM stimulation and measured after 90 mins by UPLC-MS/MS analysis (reference value: 20261 +/- 1404 pg/ml); format: functional; settings: time 105 min, 1.75 h
[18] = tested on: Macrophage cell line; experiment: Effect on lipid mediator formation in human M2-like phenotype MDM cells by measuring EPA formation at 10 uM pre-incubated for 15 mins followed by SACM stimulation and measured after 90 mins by UPLC-MS/MS analysis relative to control; format: functional; settings: time 105 min, 1.75 h
[19] = tested on: Macrophage cell line; experiment: Effect on lipid mediator formation in human M2-like phenotype MDM cells by measuring 5-HETE formation at 10 uM pre-incubated for 15 mins followed by SACM stimulation and measured after 90 mins by UPLC-MS/MS analysis (reference value: 4812 +/- 561 pg/ml); format: functional; settings: time 105 min, 1.75 h

| inhibition [1] [%] | SMILES | Activity [2] [%] | Activity [3] [%] | Activity [4] [%] | Activity [5] [pg/mL] | Activity [6] [pg/mL] | Activity [7] [pg/mL] | Activity [8] [%] | Activity [9] [pg/mL] | Activity [10] [%] | Activity [11] [pg/mL] | Activity [12] [pg/mL] | Activity [13] [pg/mL] | Activity [14] [%] | Activity [15] [pg/mL] | Activity [16] [pg/mL] | Activity [17] [pg/mL] | Activity [18] [%] | Activity [19] [pg/mL] |
| --- | --- | --- | --- | --- | --- | --- | --- | --- | --- | --- | --- | --- | --- | --- | --- | --- | --- | --- | --- |
| > 50 | COc1ccc(C2=C/C(=C/c3ccc(O)cc3O)C(=O)O2)cc1 | 136 | 106 | 201 | 6 | 520 | 48 | 9 | 144 | 85 | 53610 | 412 | 96 | 98 | 22 | 28 | 27649 | 103 | 450 |
| > 50 | Oc1ccc(CCC2CCC(c3ccc(O)cc3)CO2)cc1 (stereo not drawn) | 144 | 135 | 131 | 4 | 462 | 84 | 25 | 81 | 100 | 53713 | 234 | 62 | 97 | 71 | 29 | 22962 | 119 | 1181 |
